Entries after “also recorded” stand apart in the source; their conditions may differ. Square brackets hold non-standard residues; d marks the D form. Ends that are not written are not given here. NMeA = CN[C@@H](C)C(=O)O; Abu = CC[C@H](N)C(=O)O; Aib = CC(C)(N)C(=O)O
Assays:
Assay type in all cases: cell-based
[1] = tested on: Mv-1-Lu mink lung epithelial cells; experiment: Inhibition of DNA synthesis (3H-thymidine incorporation) and proliferation of Mv-1-Lu cells; details: for % Inhibition of incorporation of 3H-thymidine / 3H-Radioactivity: MV-1 Lu cells; for 3H-Radioactivity: control without peptide 3.57; for Bioactivity as agonist (tested as for DNA inhibition): Example 7; for Inhibition in comparison to cytomodulin (Inhib by new peptide/Inhib by cytomodulin): 3H-thymidine incorporation, MV-1-Lu cells; for Inhibition of DNA synthesis / proliferation of Mv-1-Lu cells (in words): 10−9 to 10−6 M range
Experimental: The effect of TGF-β and cytomodulin were evaluated by determining the rate of […]thyidine incorporation into total acid-insoluble DNA and cell number. See generally, Sampath et al., Journal of Biological Chemistry, 267, pp. 20352-20362 (1992). DNA synthesis rates were determined in triplicate cultures after 24 hour treatment with various concentrations (10−9 M to 10^−6M) of either TGF-β or cytomodulin (which was synthesized by the Merrifield method) by adding [methyl-^3H]thymidine (2 μCi/ml, 80 Ci/mmol) for 6 hours before the termination of the culture. Incorporation was terminated by aspiration of the medium, and after washing three times with phosphate-buffered saline, the trichloroacetic acid (10%)-precipitated radioactive DNA was extracted with 1.0% (w/v) sodium dodecyl sulfate, 0.1 M NaOH and quantitated by liquid scintillation counting. For cell number determination, 1×10^5 cells were plated in flasks in MEM containing 10% FBS, and after 24 hours, the growth medium was replaced with serum-free medium containing various conceptions of TGF-β and cytomodulin. Triplicate cultures were harvested every 24 hours for the duration of 7 days, and the cell number was determined by counting cells released by trypsin digestion in a fixed volume hemacytometer.
The numbers shown at the various concentration are the ratio of the inhibition rate of the peptide being tested over the inhibition rate of cytomodulin (SEQ ID NO: 1) at the same concentration.
Tests for bioactivity were conducted as described above for DNA inhibition.

[2] = tested on: TGF-β activity; experiment: TGF-β like activity, overall statement, test not specified
[3] = tested on: NRK-49 F normal rat kidney fibroblasts; experiment: Growth and colony formation by NRK-49 F fibroblasts in soft agar; details: for Colony formation in soft agar: 100 nM
Experimental: The original assay for TGF-β, the ability to promote anchorage independent growth of normal fibroblasts is still one of the hallmarks of TGF-β activity. NRK-49 F fibroblasts were grown at 37° C. in DEM supplemented with 10% fetal calf serum. […] To this, either 100 nM TGF-β (positive control) or 100 nM cytomodulin was added. NRK49 F fibroblasts (5×10^4 cells/ml) were mixed with 0.3% agar were plated on the bottom of 35 mm culture dishes. Colony formation was observed starting on day 3 of culture.

[4] = tested on: human dermal fibroblasts; experiment: Gene expression in human dermal fibroblasts (Northern analysis)
Experimental: (§1) Total cellular RNA was isolated using essentially the method described by Maniatis. Sambrook et al., Molecular Cloning: A Laboratory Marual, Cold Spring Harbor Laboratory Press, Second Edition (1989). Cells were lysed with 0.5% SDS and 0.1 potassium acetate. The lysate was extracted with phenol and centrifuiged at 5000 rpm for 15 minutes. The aqueous phase was precipitated with 2 volumes ethanol in 0.1 M Tris, pH 8.0 and 0.2 M NaCl. The pellet was resuspended and quantitated by measuring the ultraviolet absorbance at 260 nm. RNA purity was assessed by comparing the ultraviolet absorbance at 260 inm with that at 280 nm.
(§2) RNA (10 μg/lane) was electrophoresed at 3 to 4 v/cm through a 0.7% agarose, 2.2 M formaldehyde denaturing gel. RNA was transferred by capillary transfer to nylon membranes. RNA integrity, gel loading, and transfer efficiency were assessed by methylene blue stained 28S and 18 S bands. The filters were baked at 80° C. for 2 hours to immobilize the RNA. After baking, the filters were hybridized at 65° C. in 0.5 M NaPO4 buffer, pH 7.0, containing 1 mM EDTA, 7% sodium dodecyl sulfate, and 1% bovine serum albumin. cDNA probes were labeled with DDIG […] by the random primer method, using Klenow enzyme. Hybridization for 18 hours at 65° C. followed by washing, was performed.
(§3) Data were analyzed by scanning digoxigenin-dVTP according to manufacturer's procedure (Boehringer Mannheim Biochemica, DIG DNA labelling kit, Cat. No. 1175033).

[5] = tested on: human osteogenic sarcoma (HOS) cell line; experiment: Gene expression in HOS cells (Northern analysis)
Experimental: as §1, §2, §3

[6] = 1 mM peptide (so in the source)

With “L-(Abu)-A-E-A-K (L[Abu]AEAK) [SEQ ID NO:6]” the “% Inhibition of incorporation of 3H-thymidine” value (from here on “% Inhibition”) ([1]; 1 nM peptide) was 33%, the 3H-Radioactivity ([1]; 1 nM peptide) was 2.02 10^3 dpm and the “% Inhibition” value ([1]; 5 nM peptide) was 35%. The 3H-Radioactivity ([1]; 5 nM peptide) was 1.97 10^3 dpm.
For “L-I-P-E-A-K (LIPEAK; TGF-beta mimic) [SEQ ID NO:21]”, the “Bioactivity as agonist (tested as for DNA inhibition)” value [1] was “active as an agonist”.
In the case of “L-I-A-N-A-K (LIANAK; TGF-beta mimic) [SEQ ID NO:10]”, the “Inhibition in comparison to cytomodulin (Inhib by new peptide/Inhib by cytomodulin)” value ([1]; 1 nM) is reported as 1.70, the “Inhibition in comparison to cytomodulin (Inhib by new peptide/Inhib by cytomodulin)” value ([1]; 10 nM) is reported as 2.00 and the “Inhibition in comparison to cytomodulin (Inhib by new peptide/Inhib by cytomodulin)” value ([1]; 100 nM) is reported as 1.43. For the same substance, the “Inhibition in comparison to cytomodulin (Inhib by new peptide/Inhib by cytomodulin)” value ([1]; 1000 nM) was 3.05 and the “Inhibition of DNA synthesis / proliferation of Mv-1-Lu cells (in words)” value [1] was “even more than cytomodulin at every concentration tested”.
With “L-(Aib)-A-E-A-K (L[Aib]AEAK) [SEQ ID NO:4]” the “% Inhibition” value ([1]; 5 nM peptide) was 35%, the 3H-Radioactivity ([1]; 5 nM peptide) was 2.31 10^3 dpm and the “% Inhibition” value ([1]; 50 nM peptide) was 46%. For the same substance, the 3H-Radioactivity ([1]; 50 nM peptide) was 1.94 10^3 dpm, the “% Inhibition” value ([1]; 100 nM peptide) was 60% and the 3H-Radioactivity ([1]; 100 nM peptide) was 1.44 10^3 dpm. The “% Inhibition” value ([1]; 500 nM peptide) was 55%, the 3H-Radioactivity ([1]; 500 nM peptide) was 1.61 10^3 dpm and the “% Inhibition” value [1, 6] was 27%. The 3H-Radioactivity [1, 6] was 2.60 10^3 dpm.
With “L-I-(D-Ala)-E-A-K (LI[dA]EAK) [SEQ ID NO:39]” the “Bioactivity as agonist (tested as for DNA inhibition)” value [1] was “active as an agonist”.
For “G-G-Q-I-A-N-I (GGQIANI; TGF-beta mimic) [SEQ ID NO:7]”, the TGF-β like activity [2] was “did not display significant TGF-β activity”.
“L-I-A-G-G-E (LIAGGE; TGF-beta mimic) [SEQ ID NO:13]” was tested, and the “Inhibition in comparison to cytomodulin (Inhib by new peptide/Inhib by cytomodulin)” value ([1]; 1 nM) was 1.10, the “Inhibition in comparison to cytomodulin (Inhib by new peptide/Inhib by cytomodulin)” value ([1]; 10 nM) was 1.33 and the “Inhibition in comparison to cytomodulin (Inhib by new peptide/Inhib by cytomodulin)” value ([1]; 100 nM) was 1.45. For the same substance, the “Inhibition in comparison to cytomodulin (Inhib by new peptide/Inhib by cytomodulin)” value ([1]; 1000 nM) was 1.90 and the “Inhibition of DNA synthesis / proliferation of Mv-1-Lu cells (in words)” value [1] was “inhibits thymidine uptake more than SEQ ID NO: 14”.
With “L-I-A-D-A-K (LIADAK; TGF-beta mimic) [SEQ ID NO:9]” the “Inhibition in comparison to cytomodulin (Inhib by new peptide/Inhib by cytomodulin)” value ([1]; 1 nM) was 0.45, the “Inhibition in comparison to cytomodulin (Inhib by new peptide/Inhib by cytomodulin)” value ([1]; 10 nM) was 0.87 and the “Inhibition in comparison to cytomodulin (Inhib by new peptide/Inhib by cytomodulin)” value ([1]; 100 nM) was 1.14. For the same substance, the “Inhibition in comparison to cytomodulin (Inhib by new peptide/Inhib by cytomodulin)” value ([1]; 1000 nM) was 1.25.
With “A-N-V-A-E-N-A (ANVAENA; TGF-beta mimic) [cytomodulin]” the “Colony formation in soft agar” value ([3]; with EGF and PDGF) was “formed colonies to approximately the same extent as the TGF-β cultures; also recorded: much larger colonies”, the “Colony formation in soft agar” value ([3]; without EGF and PDGF) was “did induce colony formation; also recorded: formation of small colonies” and the “Expression of type I collagen” value [4] was “induction of increased expression”. For the same substance, the “Expression of TGF-β” value [5] was “increased the expression”, the “Expression of alkaline phosphatase” value [5] was “stimulate; also recorded: increased the expression” and the Expression of osteonectin [5] was “stimulate”. For the same substance, the “Expression of type I collagen” value [5] was “increased the expression” and the “Inhibition of DNA synthesis / proliferation of Mv-1-Lu cells (in words)” value [1] was “inhibition of DNA synthesis; also recorded: at least as much as TGF-β”.
For “L-I-A-P-E-A (LIAPEA; TGF-beta mimic) [L1]”, the “Growth and colony formation of NRK-49F cells in soft agar (in words)” value [3] was “promoted the growth”, the “Expression of TGF-β” value [4] was “increased the expression” and the Expression of collagenase [4] was “decreased the expression”. The “Expression of type I collagen” value [4] was “increased the expression”, the TGF-β like activity [2] was “at least as much TGF-β like activity as cytomodulin” and the “Expression of TGF-β” value [5] was “increased the expression”. For the same substance, the “Expression of alkaline phosphatase” value [5] was “increased the expression”, the “Expression of type I collagen” value [5] was “increased the expression” and the “Inhibition of DNA synthesis / proliferation of Mv-1-Lu cells (in words)” value [1] was “inhibited the proliferation”.
For “L-I-(Nme-A)-E-A-K (LI[NMeA]EAK) [SEQ ID NO:5]”, the “% Inhibition” value ([1]; 1 nM peptide) was 47%, the 3H-Radioactivity ([1]; 1 nM peptide) was 1.61 10^3 dpm and the “% Inhibition” value ([1]; 5 nM peptide) was 42%. For the same substance, the 3H-Radioactivity ([1]; 5 nM peptide) was 1.76 10^3 dpm, the “% Inhibition” value ([1]; 50 nM peptide) was 41% and the 3H-Radioactivity ([1]; 50 nM peptide) was 1.60 10^3 dpm. For the same substance, the “% Inhibition” value ([1]; 100 nM peptide) was 40%, the 3H-Radioactivity ([1]; 100 nM peptide) was 1.81 10^3 dpm and the “% Inhibition” value ([1]; 500 nM peptide) was 53%. For the same substance, the 3H-Radioactivity ([1]; 500 nM peptide) was 1.42 10^3 dpm.
In the case of “L-I-A-E-A-A (LIAEAA; TGF-beta mimic) [SEQ ID NO:11]”, the “Inhibition in comparison to cytomodulin (Inhib by new peptide/Inhib by cytomodulin)” value ([1]; 1 nM) is reported as 1.16, the “Inhibition in comparison to cytomodulin (Inhib by new peptide/Inhib by cytomodulin)” value ([1]; 10 nM) is reported as 1.00 and the “Inhibition in comparison to cytomodulin (Inhib by new peptide/Inhib by cytomodulin)” value ([1]; 100 nM) is reported as 1.17. For the same substance, the “Inhibition in comparison to cytomodulin (Inhib by new peptide/Inhib by cytomodulin)” value ([1]; 1000 nM) was 1.85 and the “Inhibition of DNA synthesis / proliferation of Mv-1-Lu cells (in words)” value [1] was “at least as much activity as cytomodulin”.
For “L-I-A-Q-A-K (LIAQAK; TGF-beta mimic) [SEQ ID NO:12]”, the “Inhibition in comparison to cytomodulin (Inhib by new peptide/Inhib by cytomodulin)” value ([1]; 1 nM) was 0.90, the “Inhibition in comparison to cytomodulin (Inhib by new peptide/Inhib by cytomodulin)” value ([1]; 10 nM) was 1.10 and the “Inhibition in comparison to cytomodulin (Inhib by new peptide/Inhib by cytomodulin)” value ([1]; 100 nM) was 0.80. The “Inhibition in comparison to cytomodulin (Inhib by new peptide/Inhib by cytomodulin)” value ([1]; 1000 nM) was 1.56.
In the case of “L-I-(Aib)-E-A-K (LI[Aib]EAK) [SEQ ID NO:22]”, the “Bioactivity as agonist (tested as for DNA inhibition)” value [1] is reported as “active as an agonist”.
With “A-N-V-A-E-K (ANVAEK; TGF-beta mimic) [SEQ ID NO:15]” the “Inhibition in comparison to cytomodulin (Inhib by new peptide/Inhib by cytomodulin)” value ([1]; 10 nM) was 0.80 and the “Inhibition in comparison to cytomodulin (Inhib by new peptide/Inhib by cytomodulin)” value ([1]; 100 nM) was 1.00.
“L-I-A-K-G-K (LIAKGK; TGF-beta mimic) [SEQ ID NO:16]” was tested, and the “Inhibition in comparison to cytomodulin (Inhib by new peptide/Inhib by cytomodulin)” value ([1]; 10 nM) was 0.65 and the “Inhibition in comparison to cytomodulin (Inhib by new peptide/Inhib by cytomodulin)” value ([1]; 100 nM) was 0.67.
With “E-G-I-A-G-K (EGIAGK; TGF-beta mimic) [SEQ ID NO:8]” the TGF-β like activity [2] was “did not display significant TGF-β activity”.
“L-I-A-G-E-G (LIAGEG; TGF-beta mimic) [SEQ ID NO:14]” was tested, and the “Inhibition in comparison to cytomodulin (Inhib by new peptide/Inhib by cytomodulin)” value ([1]; 1 nM) was 0.66, the “Inhibition in comparison to cytomodulin (Inhib by new peptide/Inhib by cytomodulin)” value ([1]; 10 nM) was 0.85 and the “Inhibition in comparison to cytomodulin (Inhib by new peptide/Inhib by cytomodulin)” value ([1]; 100 nM) was 1.41. For the same substance, the “Inhibition in comparison to cytomodulin (Inhib by new peptide/Inhib by cytomodulin)” value ([1]; 1000 nM) was 1.88.

From US6638912B2, “Peptide compositions mimicking TGF-β activity” (The Regents of the University of California, priority 1995, dated 2003)
